Assay results published in ChEMBL document CHEMBL1152108, “Dual metalloprotease inhibitors. II. Effect of substitution and stereochemistry on benzazepinone based mercaptoacetyls” (Bioorg Med Chem Lett, 1994).

Legend:
[1] = molecular target: Angiotensin-converting enzyme (Homo sapiens, UniProt P12821); assay: Inhibition of Angiotensin I converting enzyme; settings: read-out: I50
Neprilysin = Neprilysin (Homo sapiens, UniProt P08473); assay: Inhibition of Neutral Endopeptidase (NEP); settings: read-out: I50
Chain of Neprilysin (P08473 whole entry): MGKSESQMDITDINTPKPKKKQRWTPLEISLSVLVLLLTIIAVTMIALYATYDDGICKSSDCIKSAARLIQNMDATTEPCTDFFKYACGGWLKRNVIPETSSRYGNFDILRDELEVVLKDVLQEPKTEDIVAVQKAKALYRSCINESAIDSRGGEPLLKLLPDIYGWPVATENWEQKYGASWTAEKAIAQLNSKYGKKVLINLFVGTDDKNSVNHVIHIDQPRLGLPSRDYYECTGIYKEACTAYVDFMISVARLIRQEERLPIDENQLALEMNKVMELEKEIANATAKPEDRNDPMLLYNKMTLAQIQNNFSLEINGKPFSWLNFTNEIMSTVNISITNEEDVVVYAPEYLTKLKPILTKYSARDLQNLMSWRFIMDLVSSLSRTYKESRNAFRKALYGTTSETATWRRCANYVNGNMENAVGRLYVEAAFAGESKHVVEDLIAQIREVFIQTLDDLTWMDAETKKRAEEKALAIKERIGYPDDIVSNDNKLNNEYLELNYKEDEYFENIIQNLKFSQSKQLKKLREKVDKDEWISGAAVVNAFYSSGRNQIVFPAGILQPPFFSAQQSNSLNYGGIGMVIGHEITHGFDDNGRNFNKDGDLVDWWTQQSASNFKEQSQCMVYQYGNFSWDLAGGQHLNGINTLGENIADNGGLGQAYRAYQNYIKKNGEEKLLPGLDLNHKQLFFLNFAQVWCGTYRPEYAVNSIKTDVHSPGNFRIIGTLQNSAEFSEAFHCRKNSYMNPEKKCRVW

Rattus norvegicus [2] = assay: Compound was tested in vivo for inhibition of Angiotensin I(AI) induced pressor response in normotensive rat after iv administration; assay type: functional
Rattus norvegicus [3] = assay: Maximal percentage inhibition of Angiotensin I(AI) induced pressor response in normotensive rat at 0.15 (umol/kg) (iv); assay type: functional

Chain of Angiotensin-converting enzyme (P12821 whole entry): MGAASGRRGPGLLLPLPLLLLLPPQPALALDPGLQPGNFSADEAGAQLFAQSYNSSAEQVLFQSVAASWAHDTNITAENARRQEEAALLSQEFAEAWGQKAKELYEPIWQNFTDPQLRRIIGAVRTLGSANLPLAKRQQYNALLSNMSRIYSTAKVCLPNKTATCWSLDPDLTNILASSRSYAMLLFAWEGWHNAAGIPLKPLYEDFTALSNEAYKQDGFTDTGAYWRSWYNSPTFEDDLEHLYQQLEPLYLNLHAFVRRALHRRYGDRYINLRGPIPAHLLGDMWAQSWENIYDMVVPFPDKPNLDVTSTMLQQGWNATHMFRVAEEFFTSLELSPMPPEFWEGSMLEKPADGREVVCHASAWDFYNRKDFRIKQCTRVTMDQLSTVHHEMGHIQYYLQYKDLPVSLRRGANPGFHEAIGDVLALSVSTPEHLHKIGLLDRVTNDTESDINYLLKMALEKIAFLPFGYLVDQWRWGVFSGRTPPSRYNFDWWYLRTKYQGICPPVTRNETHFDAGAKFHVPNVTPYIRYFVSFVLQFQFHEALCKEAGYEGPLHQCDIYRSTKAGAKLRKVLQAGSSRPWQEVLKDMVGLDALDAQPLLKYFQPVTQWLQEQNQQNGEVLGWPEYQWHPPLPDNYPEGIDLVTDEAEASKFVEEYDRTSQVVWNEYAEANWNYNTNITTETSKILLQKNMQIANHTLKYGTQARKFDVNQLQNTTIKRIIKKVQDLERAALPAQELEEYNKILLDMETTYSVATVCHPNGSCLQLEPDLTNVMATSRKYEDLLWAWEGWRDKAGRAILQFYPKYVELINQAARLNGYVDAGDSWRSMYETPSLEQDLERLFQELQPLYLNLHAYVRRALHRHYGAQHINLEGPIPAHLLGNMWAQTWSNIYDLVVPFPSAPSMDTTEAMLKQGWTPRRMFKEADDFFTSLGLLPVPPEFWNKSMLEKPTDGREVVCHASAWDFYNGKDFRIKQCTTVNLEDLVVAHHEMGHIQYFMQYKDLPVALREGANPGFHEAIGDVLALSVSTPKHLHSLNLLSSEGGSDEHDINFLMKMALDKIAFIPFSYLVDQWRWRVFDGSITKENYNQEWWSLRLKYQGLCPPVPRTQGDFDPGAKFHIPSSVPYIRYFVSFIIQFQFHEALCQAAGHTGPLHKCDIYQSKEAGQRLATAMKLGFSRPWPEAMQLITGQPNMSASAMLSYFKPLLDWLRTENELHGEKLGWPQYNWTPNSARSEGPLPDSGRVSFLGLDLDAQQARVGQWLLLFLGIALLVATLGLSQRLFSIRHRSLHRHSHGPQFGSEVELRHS

| Structure (SMILES) | IC50 [1] [nM] | IC50 (Neprilysin) [nM] | ED50 (Rattus norvegicus [2]) [µmol/kg] | Inhibition (Rattus norvegicus [3]) [%] |
| --- | --- | --- | --- | --- |
| O=C(O)CN1Cc2ccccc2C[C@H](NC(=O)[C@@H](S)Cc2ccccc2)C1=O | 33 | 175 | – | – |
| C[C@H](NC(=O)[C@@H](S)Cc1ccccc1)C(=O)N(CC(=O)O)c1ccccc1 | 14 | 137 | 0.15 | 42 |
| C[C@H](S)C(=O)N[C@H]1CCc2ccccc2N(CC(=O)O)C1=O | 24 | 1850 | – | – |
| O=C(O)CN1C(=O)[C@@H](NC(=O)[C@H](S)Cc2ccccc2)CCc2ccccc21 | 284 | 14 | – | – |
| CC(C)C[C@H](S)C(=O)N[C@H]1CCc2ccccc2N(CC(=O)O)C1=O | 6.3 | 7 | 0.23 | – |
| CC(S)(Cc1ccccc1)C(=O)N[C@H]1CCc2ccccc2N(CC(=O)O)C1=O (stereo in doubt; form 2) | 63 | 2000 | – | – |
| O=C(O)CN1CCCC[C@H](NC(=O)[C@@H](S)Cc2ccccc2)C1=O | 22 | 82 | 0.83 | – |
| O=C(O)CN1C(=O)[C@H](NC(=O)[C@@H](S)Cc2ccccc2)CCc2ccccc21 | 306 | 560 | – | – |
| O=C(O)CN1C(=O)[C@@H](NC(=O)[C@@H](S)Cc2ccccc2)CCc2ccccc21 | – | 6 | 0.02 | – |
| CCCC[C@H](S)C(=O)N[C@H]1CCc2ccccc2N(CC(=O)O)C1=O | 5.4 | 36 | 0.06 | – |
| O=C(O)CN1C(=O)C(NC(=O)[C@@H](S)Cc2ccccc2)CCCc2ccccc21 (stereo partly specified) | 25 | 1120 | – | – |
| O=C(O)CN1C(=O)[C@@H](NC(=O)[C@@H](S)CC2CCCCC2)CCc2ccccc21 | 22 | 4260 | – | – |
| CC(S)(Cc1ccccc1)C(=O)N[C@H]1CCc2ccccc2N(CC(=O)O)C1=O (stereo in doubt; form 1) | 183 | 865 | – | – |
